Common to all, as to assay: Competitive isoTOP-ABPP in situ (fragment-treated cells)
Holding throughout (assay type): cell-based
Common to all, as to settings: 200 μM, insitu, 231

The target of assay [1] is cysteines in MDA-MB-231 and Ramos cells (Homo sapiens, UniProt P04406).
Assay [2] addresses T1, cysteines in MDA-MB-231 and Ramos cells (Homo sapiens, UniProt O95336).
T1 sequence (O95336 1-258): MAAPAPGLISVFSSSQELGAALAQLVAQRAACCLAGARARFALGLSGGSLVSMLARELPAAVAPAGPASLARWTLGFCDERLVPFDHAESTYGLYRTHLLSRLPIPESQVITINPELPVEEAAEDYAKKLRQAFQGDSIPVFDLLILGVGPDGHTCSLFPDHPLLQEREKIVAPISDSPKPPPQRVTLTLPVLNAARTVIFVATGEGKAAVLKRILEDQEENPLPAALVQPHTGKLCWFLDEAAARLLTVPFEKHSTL

The target in assay [3] is T2, cysteines in MDA-MB-231 and Ramos cells (Homo sapiens, UniProt Q99439).
T2 sequence (Q99439 1-309): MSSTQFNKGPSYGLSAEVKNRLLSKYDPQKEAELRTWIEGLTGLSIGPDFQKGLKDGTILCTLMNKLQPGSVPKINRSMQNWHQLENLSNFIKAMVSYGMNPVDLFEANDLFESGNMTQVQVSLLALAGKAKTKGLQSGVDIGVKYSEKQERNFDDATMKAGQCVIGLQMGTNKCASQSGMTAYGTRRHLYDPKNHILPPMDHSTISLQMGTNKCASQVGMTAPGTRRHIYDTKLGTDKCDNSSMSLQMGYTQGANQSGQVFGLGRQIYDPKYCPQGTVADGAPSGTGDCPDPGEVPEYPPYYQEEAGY

Assay [4] concerns the target T3, cysteines in MDA-MB-231 and Ramos cells (Homo sapiens, UniProt O15294).
T3 sequence (O15294 1-1046): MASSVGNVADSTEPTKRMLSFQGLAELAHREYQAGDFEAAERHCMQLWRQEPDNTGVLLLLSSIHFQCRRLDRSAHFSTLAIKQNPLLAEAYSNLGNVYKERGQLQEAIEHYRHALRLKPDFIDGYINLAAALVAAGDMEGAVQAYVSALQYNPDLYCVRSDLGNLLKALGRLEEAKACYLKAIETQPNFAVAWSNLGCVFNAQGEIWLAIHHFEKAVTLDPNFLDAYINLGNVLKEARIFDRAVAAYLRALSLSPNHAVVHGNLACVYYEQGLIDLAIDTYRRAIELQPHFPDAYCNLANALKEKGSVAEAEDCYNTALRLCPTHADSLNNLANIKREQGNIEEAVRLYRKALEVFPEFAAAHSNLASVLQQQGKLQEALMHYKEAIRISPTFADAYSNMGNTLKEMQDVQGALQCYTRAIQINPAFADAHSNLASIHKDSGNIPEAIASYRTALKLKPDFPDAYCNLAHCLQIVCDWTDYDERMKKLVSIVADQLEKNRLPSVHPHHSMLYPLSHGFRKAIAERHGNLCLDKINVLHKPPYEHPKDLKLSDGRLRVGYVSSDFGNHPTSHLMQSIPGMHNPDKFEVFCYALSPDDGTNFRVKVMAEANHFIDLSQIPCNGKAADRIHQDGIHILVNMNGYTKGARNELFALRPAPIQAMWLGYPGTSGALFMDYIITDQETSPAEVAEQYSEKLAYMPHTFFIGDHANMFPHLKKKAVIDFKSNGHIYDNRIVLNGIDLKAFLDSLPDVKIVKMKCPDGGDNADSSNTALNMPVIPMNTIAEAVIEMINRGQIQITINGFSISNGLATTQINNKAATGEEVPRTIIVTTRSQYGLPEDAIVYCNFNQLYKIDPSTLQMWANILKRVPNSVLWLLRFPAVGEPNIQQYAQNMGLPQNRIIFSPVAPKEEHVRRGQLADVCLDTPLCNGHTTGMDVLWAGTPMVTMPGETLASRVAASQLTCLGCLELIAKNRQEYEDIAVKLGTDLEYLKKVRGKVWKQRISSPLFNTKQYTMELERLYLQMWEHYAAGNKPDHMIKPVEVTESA

Assay [5] has as its target T4, cysteines in MDA-MB-231 and Ramos cells (Homo sapiens, UniProt Q9HAV7).
T4 sequence (Q9HAV7 28-217): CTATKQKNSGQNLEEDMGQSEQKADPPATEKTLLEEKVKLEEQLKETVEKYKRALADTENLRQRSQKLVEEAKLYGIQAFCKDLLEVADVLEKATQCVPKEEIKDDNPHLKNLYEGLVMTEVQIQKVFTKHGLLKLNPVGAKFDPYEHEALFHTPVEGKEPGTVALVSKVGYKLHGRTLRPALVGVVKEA

Assay [6] addresses T5, cysteines in MDA-MB-231 and Ramos cells (Homo sapiens, UniProt P11216).
T5 sequence (P11216 1-843): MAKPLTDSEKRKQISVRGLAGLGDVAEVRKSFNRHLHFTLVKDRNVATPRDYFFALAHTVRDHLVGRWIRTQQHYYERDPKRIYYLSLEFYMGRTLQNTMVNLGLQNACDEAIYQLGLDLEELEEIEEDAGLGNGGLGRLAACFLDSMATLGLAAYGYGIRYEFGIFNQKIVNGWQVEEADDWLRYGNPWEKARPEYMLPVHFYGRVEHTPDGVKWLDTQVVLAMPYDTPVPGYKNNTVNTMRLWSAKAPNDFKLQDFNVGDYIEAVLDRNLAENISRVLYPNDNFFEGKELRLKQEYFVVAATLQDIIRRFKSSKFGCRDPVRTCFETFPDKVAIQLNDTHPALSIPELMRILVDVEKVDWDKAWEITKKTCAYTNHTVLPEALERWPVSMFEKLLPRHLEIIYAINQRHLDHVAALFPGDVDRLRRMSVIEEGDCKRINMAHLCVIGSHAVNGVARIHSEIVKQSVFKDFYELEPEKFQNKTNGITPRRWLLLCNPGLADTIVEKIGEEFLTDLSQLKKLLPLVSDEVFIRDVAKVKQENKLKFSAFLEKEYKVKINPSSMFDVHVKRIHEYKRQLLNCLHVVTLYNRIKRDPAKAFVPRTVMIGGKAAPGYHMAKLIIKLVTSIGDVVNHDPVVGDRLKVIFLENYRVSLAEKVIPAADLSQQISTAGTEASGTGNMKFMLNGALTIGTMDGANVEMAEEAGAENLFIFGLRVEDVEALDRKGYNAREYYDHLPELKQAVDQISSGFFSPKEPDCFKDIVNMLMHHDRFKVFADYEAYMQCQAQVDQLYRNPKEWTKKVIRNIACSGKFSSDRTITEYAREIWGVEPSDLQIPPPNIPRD

The values below come from patent US10670605B2, “Cysteine reactive probes and uses thereof” (The Scripps Research Institute, priority 2015, dated 2020).

Sequence of cysteines in MDA-MB-231 and Ramos cells (Homo sapiens, UniProt P04406) (P04406 whole entry): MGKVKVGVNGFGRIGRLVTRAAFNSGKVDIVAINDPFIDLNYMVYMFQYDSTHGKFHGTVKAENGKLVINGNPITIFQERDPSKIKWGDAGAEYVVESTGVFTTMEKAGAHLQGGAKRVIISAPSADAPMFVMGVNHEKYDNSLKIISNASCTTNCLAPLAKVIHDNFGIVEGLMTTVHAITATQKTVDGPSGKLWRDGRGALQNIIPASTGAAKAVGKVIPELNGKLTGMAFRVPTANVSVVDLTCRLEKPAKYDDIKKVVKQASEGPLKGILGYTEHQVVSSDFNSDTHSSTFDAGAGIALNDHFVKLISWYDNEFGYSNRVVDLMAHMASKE

In the case of `O=C(CCl)NC12CC3CC(CC(C3)C1)C2` [compound 21], in assay [1], the “isoTOP-ABPP ratio P04406_C152” value turned out to be 1.3. The “isoTOP-ABPP ratio O95336_C32” value in assay [2] turned out to be 0.9. In assay [3], the “isoTOP-ABPP ratio Q99439_C164” value is recorded as 0.9. The “isoTOP-ABPP ratio O15294_C758” value in assay [4] is reported as 1.1. The “isoTOP-ABPP ratio Q9HAV7_C124” value in assay [5] is on record as 1.7. The “isoTOP-ABPP ratio P11216_C326” value in assay [6] is recorded as 0.9.
For the compound `Cc1ccc(C=C(C#N)C(=O)NCCN2CCOCC2)cc1` [compound 41], in assay [1], the “isoTOP-ABPP ratio P04406_C152” value was 0.6. In addition, the “isoTOP-ABPP ratio O95336_C32” value in assay [2] is 0.6. In assay [3], the “isoTOP-ABPP ratio Q99439_C164” value is reported as 0.4. For the same compound, in assay [4], the “isoTOP-ABPP ratio O15294_C620” value is 1.0 and the “isoTOP-ABPP ratio O15294_C758” value is 0.9. Also, in assay [5], the “isoTOP-ABPP ratio Q9HAV7_C124” value was determined as 0.6. Further, the “isoTOP-ABPP ratio P11216_C326” value in assay [6] is reported as 0.7.
